The numbers were not newly measured in article PMC11974678 (bioRxiv, 2025), which cites them from elsewhere.

In this data set the target is T1, FABP1 (Homo sapiens, UniProt P07148).
T1 sequence (P07148 with tags, fused parts or gaps): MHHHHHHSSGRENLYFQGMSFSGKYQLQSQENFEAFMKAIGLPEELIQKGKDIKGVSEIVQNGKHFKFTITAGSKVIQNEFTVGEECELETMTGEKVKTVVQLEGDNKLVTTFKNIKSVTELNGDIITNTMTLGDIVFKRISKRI
As to conditions: read-out: KD of binding to FABP1.

One may read the Kd as the concentration at which binding is half-saturated. For the compound `O=C(O)C(F)(F)C(F)(F)C(F)(F)C(F)(F)C(F)(F)C(F)(F)C(F)(F)F` [335-67-1, perfluorooctanoic acid], the Kd was 18.8 µM.
